From ChEMBL document CHEMBL3525952, “A Baeyer-Villiger oxidation specifically catalyzed by human flavin-containing monooxygenase 5” (Drug Metab Dispos, 2011)

What was measured:
[1] = molecular target: T1, Flavin-containing monooxygenase 3 (Homo sapiens, UniProt P31513); experiment: Drug metabolism assessed as human recombinant FMO3-mediated ER-879123 formation at 10 uM after 60 mins by LC-MS/MS method in presence of NADPH; type: ADME; settings: recombinant enzyme, 1 h
T1 sequence (P31513 whole entry): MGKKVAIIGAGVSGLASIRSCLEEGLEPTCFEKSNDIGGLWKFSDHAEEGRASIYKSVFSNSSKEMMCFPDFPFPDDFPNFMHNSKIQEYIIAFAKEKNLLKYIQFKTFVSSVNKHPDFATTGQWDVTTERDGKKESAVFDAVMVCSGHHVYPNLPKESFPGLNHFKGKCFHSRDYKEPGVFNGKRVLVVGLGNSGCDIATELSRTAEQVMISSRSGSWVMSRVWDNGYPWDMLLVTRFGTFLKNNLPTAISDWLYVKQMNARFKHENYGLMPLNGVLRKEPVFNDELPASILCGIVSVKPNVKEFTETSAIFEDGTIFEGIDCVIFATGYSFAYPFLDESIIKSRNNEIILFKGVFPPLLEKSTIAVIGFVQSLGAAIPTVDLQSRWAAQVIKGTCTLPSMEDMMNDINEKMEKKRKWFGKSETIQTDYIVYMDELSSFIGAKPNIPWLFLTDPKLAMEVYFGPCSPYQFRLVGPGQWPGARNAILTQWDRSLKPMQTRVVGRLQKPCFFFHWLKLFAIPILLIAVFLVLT

[2] = molecular target: T1, Flavin-containing monooxygenase 3; experiment: Drug metabolism assessed as human recombinant FMO3-mediated ER-879123 formation in presence NADH at 10 uM after 60 mins by LC-MS/MS method; type: ADME; settings: recombinant enzyme, 1 h
[3] = system: Liver microsome; experiment: Drug metabolism in human liver microsomes assessed as ER-879123 formation at 10 uM after 60 mins in presence of NADH by LC-MS/MS method; type: ADME; settings: 1 h
[4] = system: Liver microsome; experiment: Drug metabolism in dog liver microsomes assessed as ER-879123 formation at 10 uM after 60 mins in presence of NADH by LC-MS/MS method; type: ADME, Canis lupus familiaris; settings: 1 h
[5] = system: Liver microsome; experiment: Drug metabolism in 50 degC treated dog liver microsomes assessed as ER-879123 formation at 10 uM after 60 mins in absence of NAD+ by LC-MS/MS method; type: ADME, Canis lupus familiaris; settings: 1 h
[6] = system: Liver microsome; experiment: Drug metabolism in 50 degC treated human liver microsomes assessed as ER-879123 formation at 10 uM after 60 mins in absence of NAD+ by LC-MS/MS method; type: ADME; settings: 1 h
[7] = system: Liver microsome; experiment: Drug metabolism in dog liver microsomes assessed as ER-879123 formation at 10 uM after 60 mins in presence of NADH and FMO1 and FMO3 substrate/inhibitor methimazole by LC-MS/MS method; type: ADME, Canis lupus familiaris; settings: 1 h
[8] = molecular target: T2, Flavin-containing monooxygenase 1 (Homo sapiens, UniProt Q01740); experiment: Drug metabolism assessed as human recombinant FMO1-mediated ER-879123 formation in presence NADH at 10 uM after 60 mins by LC-MS/MS method; type: ADME; settings: recombinant enzyme, 1 h
T2 sequence (Q01740 whole entry): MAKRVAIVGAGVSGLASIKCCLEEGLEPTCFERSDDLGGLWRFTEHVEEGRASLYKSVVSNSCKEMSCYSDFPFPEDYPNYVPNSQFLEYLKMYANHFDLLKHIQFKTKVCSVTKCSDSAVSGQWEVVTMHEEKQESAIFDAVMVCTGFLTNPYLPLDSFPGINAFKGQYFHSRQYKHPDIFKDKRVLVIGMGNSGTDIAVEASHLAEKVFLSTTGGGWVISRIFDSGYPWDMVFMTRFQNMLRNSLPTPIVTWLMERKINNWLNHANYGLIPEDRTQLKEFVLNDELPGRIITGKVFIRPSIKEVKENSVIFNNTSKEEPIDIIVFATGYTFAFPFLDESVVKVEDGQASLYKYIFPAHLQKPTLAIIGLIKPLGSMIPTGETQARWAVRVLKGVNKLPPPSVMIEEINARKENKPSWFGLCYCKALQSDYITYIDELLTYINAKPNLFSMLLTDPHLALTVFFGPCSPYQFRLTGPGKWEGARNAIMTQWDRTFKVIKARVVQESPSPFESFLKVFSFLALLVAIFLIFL

[9] = system: Liver microsome; experiment: Drug metabolism in dog liver microsomes assessed as ER-879123 formation at 10 uM after 60 mins in presence of NADH and carboxylesterase inhibitor BNPP by LC-MS/MS method; type: ADME, Canis lupus familiaris; settings: 1 h
[10] = molecular target: T2, Flavin-containing monooxygenase 1; experiment: Drug metabolism assessed as human recombinant FMO1-mediated ER-879123 formation at 10 uM after 60 mins by LC-MS/MS method in presence of NADPH; type: ADME; settings: recombinant enzyme, 1 h
[11] = system: Liver microsome; experiment: Drug metabolism in human liver microsomes assessed as ER-879123 formation at 10 uM after 60 mins in presence of NADH and FMO1 and FMO3 substrate/inhibitor methimazole by LC-MS/MS method; type: ADME; settings: 1 h
[12] = molecular target: T3, Flavin-containing monooxygenase 5 (Homo sapiens, UniProt P49326); experiment: Drug metabolism assessed as human recombinant FMO5-mediated ER-879123 formation in presence NADH at 10 uM after 60 mins by LC-MS/MS method; type: ADME; settings: recombinant enzyme, 1 h
T3 sequence (P49326 whole entry): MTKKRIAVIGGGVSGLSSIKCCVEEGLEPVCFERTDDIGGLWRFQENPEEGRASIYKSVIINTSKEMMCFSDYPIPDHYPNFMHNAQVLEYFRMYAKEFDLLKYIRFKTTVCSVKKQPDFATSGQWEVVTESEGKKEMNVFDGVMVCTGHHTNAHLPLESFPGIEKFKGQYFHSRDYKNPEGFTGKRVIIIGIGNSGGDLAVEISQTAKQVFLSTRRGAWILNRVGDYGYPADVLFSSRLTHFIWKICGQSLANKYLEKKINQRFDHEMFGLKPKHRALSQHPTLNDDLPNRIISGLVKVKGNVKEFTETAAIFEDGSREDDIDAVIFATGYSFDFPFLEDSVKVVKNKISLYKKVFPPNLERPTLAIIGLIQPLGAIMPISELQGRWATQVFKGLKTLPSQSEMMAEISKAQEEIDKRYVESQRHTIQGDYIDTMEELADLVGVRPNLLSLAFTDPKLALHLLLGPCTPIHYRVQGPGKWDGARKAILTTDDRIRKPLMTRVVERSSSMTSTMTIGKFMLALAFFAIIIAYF

[13] = molecular target: T3, Flavin-containing monooxygenase 5; experiment: Drug metabolism assessed as human recombinant FMO5-mediated ER-879123 formation at 10 uM after 60 mins by LC-MS/MS method in presence of NADPH; type: ADME; settings: recombinant enzyme, 1 h
[14] = system: Liver microsome; experiment: Drug metabolism in human liver microsomes assessed as ER-879123 formation at 10 uM after 60 mins in presence of NADH and carboxylesterase inhibitor BNPP by LC-MS/MS method; type: ADME; settings: 1 h

For `O=C1CCN(Cc2ccc3c(c2)-c2n[nH]c(=O)c4cccc(c24)O3)CC1`, the Drug metabolism [1] was “metabolite_not_detected”, the Drug metabolism [2] was “metabolite_not_detected” and the Drug metabolism [3] was “metabolite_detected”. The Drug metabolism [4] was “metabolite_detected”, the Drug metabolism [5] was “metabolite_not_detected” and the Drug metabolism [6] was “metabolite_not_detected”. For the same molecule, the Drug metabolism [7] was “metabolite_detected”, the Drug metabolism [8] was “metabolite_not_detected” and the Drug metabolism [9] was “metabolite_not_detected”. For the same molecule, the Drug metabolism [10] was “metabolite_not_detected”, the Drug metabolism [11] was “metabolite_detected” and the Drug metabolism [12] was “metabolite_detected”. The Drug metabolism [13] was “metabolite_detected” and the Drug metabolism [14] was “metabolite_not_detected”.
